The numbers were not newly measured in publication PMC11123991, “Novel 9-Methylanthracene Derivatives as p53 Activators for the Treatment of Glioblastoma Multiforme” (Molecules, 2024), which cites them from elsewhere.

This data set relates to MDM4. Particulars: Figure 1, representative MDM4 inhibitors; reference not given; cited from earlier work.

For `CCOc1cc(/C=C2\C(=O)N(c3ccccc3)N=C2C)cc(Cl)c1OCC(=O)OC` [SJ-172550], the IC50 – broadly, the point on the concentration scale where inhibition reaches its midpoint – is 870 nM.
